# Values of other authors in PubChem BioAssay AID1259409 (Chemical Carcinogenesis Research Information System (CCRIS), 2018).
# Tested on: rodent chemically induced tumor inhibition, incidence and multiplicity
# Test: CCRIS tumor inhibitor studies
# Conditions: Dose [Inhibitor]: 0, Route [Inhibitor]: ORAL, Promoter: NONE USED
smiles,measurement,setting,value
CC1=C(/C=C/C(C)=C/C=C/C(C)=C/C=C/C=C(C)/C=C/C=C(C)/C=C/C2=C(C)CCCC2(C)C)C(C)(C)CCC1,"tumour outcome (control, treated, inhibition, significance)","Carcinogen: N-ETHYL-N'-NITRO-N-NITROSOGUANIDINE, 4245-77-6, 0.005% PALM CAROTENE IN DRINKING WATER FOR 16 WK BEGINNING POST CARCINOGEN TREATMENT (STUDY DURATION: 20 WK), Species: MOUSE, Strain/Sex: C57BL/MALE, Target Tissue: Type of Lesion: DUODENUM: TUMOR, Dose [Carcinogen]: 100 MG/L IN DRINKING WATER FOR 4 WK","18/27 (67%), 8/16 (50%), 25%, not significant"
same,"tumour outcome (control, treated, inhibition, significance)","Carcinogen: N-ETHYL-N'-NITRO-N-NITROSOGUANIDINE, 4245-77-6, 0.05% PALM CAROTENE IN DRINKING WATER FOR 16 WK BEGINNING POST CARCINOGEN TREATMENT (STUDY DURATION: 20 WK), Species: MOUSE, Strain/Sex: C57BL/MALE, Target Tissue: Type of Lesion: DUODENUM: TUMOR, Dose [Carcinogen]: 100 MG/L IN DRINKING WATER FOR 4 WK","18/27 (67%), 11/28 (39%), 42%, p<0.05"
same,"tumour outcome (control, treated, inhibition, significance)","Carcinogen: N-METHYL-N'-NITRO-N-NITROSOGUANIDINE, 70-25-7, 0.4% IN DIET FOR 2 WK PRIOR TO FIRST CARCINOGEN DOSE FOLLOWED BY 0, 0.2% IN DIET FOR 25 WK (STUDY DURATION: 27 WK), 0.4% IN DIET FOR 2 WK PRIOR TO FIRST CARCINOGEN DOSE FOLLOWED BY 0, 0.2% IN DIET FOR 25 WK (STUDY DURATION: 27 WK), Species: RAT, Strain/Sex: WISTAR/MALE, Target Tissue: Type of Lesion: COLON: ADENOCARCINOMA, Dose [Carcinogen]: 0.15 ML OF A 13.4 MG/ML SOLUTION IN DISTILLED WATER 2/WK FOR 3 WK","34/36 (94%), 34/35 (97%), -3%, not calculated"
same,"tumour outcome (control, treated, inhibition, significance)","Carcinogen: N-METHYL-N'-NITRO-N-NITROSOGUANIDINE, 70-25-7, 0.4% IN DIET FOR 2 WK PRIOR TO FIRST CARCINOGEN DOSE FOLLOWED BY 0, 0.2% IN DIET FOR 25 WK (STUDY DURATION: 27 WK), 0.4% IN DIET FOR 2 WK PRIOR TO FIRST CARCINOGEN DOSE FOLLOWED BY 0, 0.2% IN DIET FOR 25 WK (STUDY DURATION: 27 WK), Species: RAT, Strain/Sex: WISTAR/MALE, Target Tissue: Type of Lesion: COLON: ADENOMA, Dose [Carcinogen]: 0.15 ML OF A 13.4 MG/ML SOLUTION IN DISTILLED WATER 2/WK FOR 3 WK","17/36 (47%), 24/35 (69%), -47%, not calculated"
same,"tumour outcome (control, treated, inhibition, significance)","Carcinogen: N-METHYL-N'-NITRO-N-NITROSOGUANIDINE, 70-25-7, 0.4% IN DIET FOR 2 WK PRIOR TO FIRST CARCINOGEN DOSE FOLLOWED BY 0, 0.2% IN DIET FOR 52 WK (STUDY DURATION: 54 WK), 0.4% IN DIET FOR 2 WK PRIOR TO FIRST CARCINOGEN DOSE FOLLOWED BY 0, 0.2% IN DIET FOR 52 WK (STUDY DURATION: 54 WK), Species: RAT, Strain/Sex: WISTAR/MALE, Target Tissue: Type of Lesion: GLANDULAR STOMACH: ADENOCARCINOMA, Dose [Carcinogen]: 80 UG/ML IN DRINKING WATER FOR 52 WK","7/36 (19%), 4/35 (11%), 42%, not calculated"
same,outcome,"Carcinogen: N-METHYL-N'-NITRO-N-NITROSOGUANIDINE, 70-25-7, 0.4% IN DIET FOR 2 WK PRIOR TO FIRST CARCINOGEN DOSE FOLLOWED BY 0, 0.2% IN DIET FOR 52 WK (STUDY DURATION: 54 WK), 0.4% IN DIET FOR 2 WK PRIOR TO FIRST CARCINOGEN DOSE FOLLOWED BY 0, 0.2% IN DIET FOR 52 WK (STUDY DURATION: 54 WK), Species: RAT, Strain/Sex: WISTAR/MALE, Target Tissue: Type of Lesion: GLANDULAR STOMACH: LEIOMYOSARCOMA, Dose [Carcinogen]: 80 UG/ML IN DRINKING WATER FOR 52 WK","0/36 (0%), 2/35 (6%), -600%, not calculated"
same,"tumour outcome (control, treated, inhibition, significance)","Carcinogen: N-METHYL-N'-NITRO-N-NITROSOGUANIDINE, 70-25-7, 0.4% IN DIET FOR 2 WK PRIOR TO FIRST CARCINOGEN DOSE FOLLOWED BY 0, 0.2% IN DIET FOR 52 WK (STUDY DURATION: 54 WK), 0.4% IN DIET FOR 2 WK PRIOR TO FIRST CARCINOGEN DOSE FOLLOWED BY 0, 0.2% IN DIET FOR 52 WK (STUDY DURATION: 54 WK), Species: RAT, Strain/Sex: WISTAR/MALE, Target Tissue: Type of Lesion: SMALL INTESTINE: ADENOCARCINOMA, Dose [Carcinogen]: 80 UG/ML IN DRINKING WATER FOR 52 WK","10/36 (28%), 17/35 (49%), -75%, p= 0.12"
same,"tumour outcome (control, treated, inhibition, significance)","Carcinogen: N-METHYL-N'-NITRO-N-NITROSOGUANIDINE, 70-25-7, 0.4% IN DIET FOR 2 WK PRIOR TO FIRST CARCINOGEN DOSE FOLLOWED BY 0, 0.2% IN DIET FOR 52 WK (STUDY DURATION: 54 WK), 0.4% IN DIET FOR 2 WK PRIOR TO FIRST CARCINOGEN DOSE FOLLOWED BY 0, 0.2% IN DIET FOR 52 WK (STUDY DURATION: 54 WK), Species: RAT, Strain/Sex: WISTAR/MALE, Target Tissue: Type of Lesion: SMALL INTESTINE: ADENOMA, Dose [Carcinogen]: 80 UG/ML IN DRINKING WATER FOR 52 WK","1/36 (3%), 0/35 (0%), 100%, not calculated"
same,"tumour outcome (control, treated, inhibition, significance)","Carcinogen: N-METHYL-N'-NITRO-N-NITROSOGUANIDINE, 70-25-7, 0.4% IN DIET FOR 2 WK PRIOR TO FIRST CARCINOGEN DOSE FOLLOWED BY 0, 0.2% IN DIET FOR 52 WK (STUDY DURATION: 54 WK), 0.4% IN DIET FOR 2 WK PRIOR TO FIRST CARCINOGEN DOSE FOLLOWED BY 0, 0.2% IN DIET FOR 52 WK (STUDY DURATION: 54 WK), Species: RAT, Strain/Sex: WISTAR/MALE, Target Tissue: Type of Lesion: SMALL INTESTINE: ANGIOSARCOMA, Dose [Carcinogen]: 80 UG/ML IN DRINKING WATER FOR 52 WK","3/36 (8%), 6/35 (17%), -113%, not calculated"
